Here are results for 17 molecules from ChEMBL document CHEMBL1135223, “Peptidomimetics of efflux pump inhibitors potentiate the activity of levofloxacin in Pseudomonas aeruginosa” (2002).

Some results are limits rather than exact numbers.

The subject of experiment [1] is Pseudomonas aeruginosa. In words: Tested for the minimum inhibitory concentration (MIC) against growth of PAM 1032, a strain of Pseudomonas aeruginosa. The experiment is classed as functional.
Experiment [2] has as its system Pseudomonas aeruginosa. Briefly: Minimum concentration required to reduce (potentiate) the MIC of levofloxacin of Pseudomonas aeruginosa by 8-folds. The experiment is classed as functional.

In the experiment with Pseudomonas aeruginosa [1], `NCCC[C@@H](N)C(=O)N[C@H](CCc1ccccc1)C(O)c1nc2ccccc2o1.O=C(O)C(F)(F)F.O=C(O)C(F)(F)F` (some centres undefined) showed a minimum inhibitory concentration (MIC) of over 512 µg/mL. The MPC8 with Pseudomonas aeruginosa [2] was 10 µg/mL.
The matching figures for `NCCC[C@@H](N)C(=O)N[C@H](CCc1ccccc1)CSc1ccc(Cl)cc1.O=C(O)C(F)(F)F.O=C(O)C(F)(F)F`: 64 µg/mL and 1.25 µg/mL.
`COc1ccc(CCN(CCC(=O)Nc2cnc3ccccc3c2)C(=O)[C@H](N)CCCN)cc1.O=C(O)C(F)(F)F.O=C(O)C(F)(F)F` returned an MIC against Pseudomonas aeruginosa [1] of 512 µg/mL. Further, the MPC8 with Pseudomonas aeruginosa [2] turned out to be 10 µg/mL.
For `NCCC[C@@H](N)C(=O)N[C@H](CCc1ccccc1)C(=O)Nc1cnc2ccccc2c1`, the MIC with Pseudomonas aeruginosa [1] is over 512 µg/mL. For the same molecule, in the experiment with Pseudomonas aeruginosa [2], the MPC8 is 10 µg/mL.
`NCCC[C@@H](N)C(=O)N[C@H](CCc1ccccc1)C(O)c1nc2ccccc2[nH]1.O=C(O)C(F)(F)F.O=C(O)C(F)(F)F` (some centres undefined): the MIC in the experiment on Pseudomonas aeruginosa [1] was over 512 µg/mL. Moreover, the MPC8 in the experiment on Pseudomonas aeruginosa [2] was 20 µg/mL.
The molecule `Cc1cc2nc(C(O)[C@@H](CCc3ccccc3)NC(=O)[C@H](N)CCCN)oc2cc1C.O=C(O)C(F)(F)F.O=C(O)C(F)(F)F` (some centres undefined) yielded an MIC in the experiment with Pseudomonas aeruginosa [1] of 128 µg/mL. Moreover, the MPC8 in the experiment on Pseudomonas aeruginosa [2] turned out to be 2.5 µg/mL.
Molecule `NCCC[C@@H](N)C(=O)N[C@H](CCc1ccccc1)C(O)c1nc2cc(Cl)ccc2o1.O=C(O)C(F)(F)F.O=C(O)C(F)(F)F` (some centres undefined) came in with a minimal inhibitory concentration (MIC) in the experiment with Pseudomonas aeruginosa [1] of 256 µg/mL. Besides, the MPC8 with Pseudomonas aeruginosa [2] came out at 5 µg/mL.
`NCCC[C@@H](N)C(O)CN[C@H](CCc1ccccc1)C(=O)Nc1cnc2ccccc2c1.O=C(O)C(F)(F)F.O=C(O)C(F)(F)F` (some centres undefined) returned an MIC against Pseudomonas aeruginosa [1] of 128 µg/mL. In addition, the MPC8 with Pseudomonas aeruginosa [2] turned out to be 2.5 µg/mL.
`NCCC[C@@H](N)C(O)CN[C@H](CCc1ccccc1)c1nc(C(=O)Nc2cnc3ccccc3c2)co1.O=C(O)C(F)(F)F.O=C(O)C(F)(F)F` (some centres undefined) registered a minimal inhibitory concentration (MIC) in the experiment with Pseudomonas aeruginosa [1] of 64 µg/mL. Moreover, in the experiment on Pseudomonas aeruginosa [2], the MPC8 was determined as 5 µg/mL.
In the experiment with Pseudomonas aeruginosa [1], `NCCC[C@@H](N)C(=O)N[C@H](CCc1ccccc1)COc1ccc(Cl)cc1.O=C(O)C(F)(F)F.O=C(O)C(F)(F)F` came in with an MIC of 128 µg/mL. In addition, the MPC8 in the experiment on Pseudomonas aeruginosa [2] was 5 µg/mL.
In turn, `NCCC[C@@H](N)C(=O)N(CCC(=O)Nc1cnc2ccccc2c1)CCc1ccccc1.O=C(O)C(F)(F)F.O=C(O)C(F)(F)F` returned a minimal inhibitory concentration (MIC) in the experiment on Pseudomonas aeruginosa [1] of over 512 µg/mL. Further, in the experiment with Pseudomonas aeruginosa [2], the MPC8 is 10 µg/mL.
The matching figures for `NCCC[C@@H](N)C(=O)N[C@H](CCc1ccccc1)C(O)c1nc2ccccc2s1.O=C(O)C(F)(F)F.O=C(O)C(F)(F)F` (some centres undefined): 512 µg/mL and 20 µg/mL.
Molecule `NCCC[C@@H](N)C(=O)N[C@H](CCc1ccccc1)c1nc(C(=O)Nc2cnc3ccccc3c2)co1.O=C(O)C(F)(F)F.O=C(O)C(F)(F)F` showed a minimal inhibitory concentration (MIC) against Pseudomonas aeruginosa [1] of 128 µg/mL. The MPC8 in the experiment with Pseudomonas aeruginosa [2] was 5 µg/mL.
For `Cc1cc2nc(C(O)[C@@H](CCc3ccccc3)NCC(O)[C@H](N)CCCN)oc2cc1C.O=C(O)C(F)(F)F.O=C(O)C(F)(F)F` (some centres undefined), in that order: 128 µg/mL and 1.25 µg/mL.
In the experiment with Pseudomonas aeruginosa [1], `NCCC[C@@H](N)C(=O)N[C@H](CCc1ccccc1)c1nc(C(=O)Nc2ccc3ccccc3c2)co1.O=C(O)C(F)(F)F.O=C(O)C(F)(F)F` came in with a minimum inhibitory concentration (MIC) of 16 µg/mL. Besides, the MPC8 with Pseudomonas aeruginosa [2] is 2.5 µg/mL.
With `CC(C)CCN(CCC(=O)Nc1cnc2ccccc2c1)C(=O)[C@H](N)CCCN.O=C(O)C(F)(F)F.O=C(O)C(F)(F)F`, the minimum inhibitory concentration (MIC) in the experiment with Pseudomonas aeruginosa [1] is over 512 µg/mL. The MPC8 in the experiment with Pseudomonas aeruginosa [2] worked out at 10 µg/mL.
The matching figures for `Cc1ccc(CCN(CCC(=O)Nc2cnc3ccccc3c2)C(=O)[C@H](N)CCCN)cc1.O=C(O)C(F)(F)F.O=C(O)C(F)(F)F`: 256 µg/mL and 5 µg/mL.
